Test results: PMC12957839, “Antiviral activity and mechanism of purine morpholine nucleoside analogues incorporating a sulfonamide fragment” (Journal of Advanced Research, 2025)
Converted amounts (≈) assume the structure as drawn. Like-named read-outs stand apart in the source and are kept apart here.

Tests used:
PMMoV [1] = experiment: Antiviral activity assay against PMMoV, curative activity; type: in vivo, Pepper mild mottle virus (PMMoV); set-up: Curative activity: concentration or dose not given beside the values; conditions: for EC50: Pepper mild mottle virus, read-out: EC50 of curative activity
Protocol: (§1) Virions were isolated and extracted from leaves of N. benthamiana infected with PMMoV referring to the method recorded in the literature. And the inhibiting activities of C1–C38 against PMMoV were assessed with reference to the literature as well [26, 34].

PMMoV [2] = experiment: Antiviral activity assay against PMMoV, protective activity; type: in vivo, Pepper mild mottle virus (PMMoV); set-up: Protective activity: concentration or dose not given beside the values; conditions: for EC50: Pepper mild mottle virus, read-out: EC50 of protective activity
Protocol: as §1

PMMoV CP [3] = biological target: T1, PMMoV CP (Pepper mild mottle virus, UniProt P69509); experiment: ABPP probe capture of PMMoV CP (Western blot), concentration dependence and competitive inhibition; type: binding; conditions: for capture of the 17 kDa protein from PMMoV: Western blot, identical concentration, Fig. S132; for capture of PMMoV CP: same concentration of 100 µM; for capture of PMMoV CP / labeling of PMMoV CP by probe: Fig. 1B
Source text: ABPP technology utilized its unique chemical probe strategy to selectively capture target proteins and was regarded as a well-established approach for discovering target proteins.

PMMoV [4] = experiment: Antiviral activity assay against PMMoV, inactivating activity; type: in vivo, Pepper mild mottle virus (PMMoV); conditions: for pest or weed control at 500 µg/mL / EC50: Pepper mild mottle virus; for pest or weed control at 500 µg/mL: read-out: Inactivating activity; for EC50: read-out: EC50 of inactivating activity
Protocol: as §1

PMMoV CP and I3QHX5 = experiment: BiFC interaction of PMMoV CP and PMMoV CP^Y13A with I3QHX5 before and after application of C1; type: cell-based, N. benthamiana; conditions: addition of C1, 30, 36 and 42 hpi, Fig. 6A
Protocol: Designed primers to construct vectors of LCA and BiFC via homologous recombination. Extracted plasmids and waited for sequencing confirmation before transforming them into GV3101 (pU19). A. tumefaciens transient transformation solution (200 μM acetosyringone, 10 mM MgCl2, and 10 mM MES, pH = 5.6) was prepared to resuspend the organisms with a final OD600 of 1.0, then mixed them with equal OD600 and volume before being infiltrated into N. benthamiana of the same growth stage. […]

PMMoV CP [5] = biological target: T1, PMMoV CP; experiment: Microscale thermophoresis (MST) binding affinity with PMMoV CP
Protocol: The binding affinities of compounds with PMMoV CP were analyzed by MST based on the procedures delineated in the literature.

[6] = biological target: PMMoV CP (Octet, in vitro) (pepper mild mottle virus); experiment: BLI; Octet, in vitro; which partner was immobilised is not stated
[7] = against PMMoV, average of three replicates, ± standard deviation
[8] = against PMMoV, at 500 µg/mL, average of three replicates, ± standard deviation

Compound | EC50 (PMMoV [1]; [7]) | EC50 (PMMoV [2]; [7]) | EC50 (PMMoV [4]; [7]) | Curative activity (PMMoV [1]; [7]) | Protective activity (PMMoV [2]; [7]) | pest or weed control at 500 µg/mL (PMMoV [4]; [8]) | further results
CC(=O)OCC1OC(n2cnc3c(N4CCOCC4)ncnc32)C(NS(=O)(=O)c2ccc([N+](=O)[O-])cc2)C(OC(C)=O)C1OC(C)=O (stereo not shown) [C1] | 17 ± 3.9 µg/mL (≈ 25.1 µM) | 86.9 ± 8.8 µg/mL (≈ 128 µM) | 37 ± 4.4 µg/mL (≈ 54.6 µM) | 73.7 ± 5.2% | 64.3 ± 2.8% | 76.4% | capture of the 17 kDa protein from PMMoV (PMMoV CP [3]): neither C1 nor DMSO exhibited such a capacity; competitive inhibition of C2 labeling of PMMoV CP (PMMoV CP [3]; increasing concentrations of C1, Fig. 1C): competitively inhibited the interaction of C2 with PMMoV CP; capture of PMMoV CP (PMMoV CP [3]): could not; Inactivating activity (PMMoV [4]; [8]): 76.4 ± 2.6%; effect on interaction of PMMoV CP and PMMoV CP^Y13A with I3QHX5 (PMMoV CP and I3QHX5): affected the interaction; Kd (PMMoV CP [5]): 1.5 µM
C#CCN1CCN(c2ncnc3c2ncn3C2OC(COC(C)=O)C(OC(C)=O)C(OC(C)=O)C2NS(=O)(=O)c2ccc([N+](=O)[O-])cc2)CC1 (stereo not shown) [C2] | 66.6 ± 4.5 µg/mL (≈ 93.2 µM) | 64.5 ± 4.5 µg/mL (≈ 90.2 µM) | 40.7 ± 2.3 µg/mL (≈ 56.9 µM) | 67.3 ± 4.3% | 65.9 ± 3.0% | 67.4 ± 3.9% | capture of the 17 kDa protein from PMMoV (PMMoV CP [3]): capable of capturing the protein with a molecular weight of 17 kDa; labeling of PMMoV CP by probe (PMMoV CP [3]; concentrations of 10–50 µM): successfully labeled protein; labeling of PMMoV CP by probe (PMMoV CP [3]; concentrations reduced to 5–1 µM): failed to do so; capture of PMMoV CP (PMMoV CP [3]): could capture PMMoV CP
CC(=O)OCC1OC(n2cnc3c(N4CCOCC4)ncnc32)C(NS(=O)(=O)c2ccc(C)cc2)C(OC(C)=O)C1OC(C)=O (stereo not shown) [C24] | 30.7 ± 1.2 µg/mL (≈ 47.5 µM) | 919 ± 10.2 µg/mL (≈ 1420 µM) | 145 ± 4.7 µg/mL (≈ 224 µM) | 72.5 ± 2.2% | 40.8 ± 3.5% | 65.1 ± 4.2% | Kd (PMMoV CP [5]): 109 µM
CC(=O)OCC1OC(n2cnc3c(N4CCOCC4)nc(Cl)nc32)C(NS(=O)(=O)c2ccc(C)cc2)C(OC(C)=O)C1OC(C)=O (stereo not shown) [C25] | 167 ± 5.2 µg/mL (≈ 245 µM) | 345 ± 11.3 µg/mL (≈ 507 µM) | 573 ± 10.9 µg/mL (≈ 841 µM) | 59.0 ± 3.5% | 52.3 ± 1.1% | 46.9 ± 1.8% | Kd (PMMoV CP [5]): 264 ± 25.1 µM
CNCC(=O)N[C@@H](CO)C(=O)N[C@H]1[C@H](O)[C@@H](O)[C@H](n2ccc(N)nc2=O)O[C@@H]1C(N)=O [Ningnanmycin, reference compound] | – | – | – | 54.5 ± 3.3% | 60.8 ± 3.1% | – | EC50 (PMMoV [1]): 258 ± 7.6 µg/mL (≈ 581 µM); EC50 (PMMoV [2]): 285 ± 5.3 µg/mL (≈ 644 µM); EC50 (PMMoV [4]): 67.3 ± 3.5 µg/mL (≈ 152 µM); pest or weed control at 500 µg/mL (PMMoV [4]): 71.2 ± 6.1%
I3QHX5 (Octet, in vitro) (from UniProt I3QHX5 1-485) (natural protein) | – | – | – | – | – | – | Kd [6]: 0.013 µM

Further lines, with some results ahead:

EC50 (PMMoV [1]; [7]) | EC50 (PMMoV [2]; [7]) | EC50 (PMMoV [4]; [7]) | Compound | Curative activity (PMMoV [1]; [7]) | Protective activity (PMMoV [2]; [7]) | pest or weed control at 500 µg/mL (PMMoV [4]; [8]) | further results
32 ± 1 µg/mL (≈ 44.7 µM) | 305 ± 12.2 µg/mL (≈ 426 µM) | 176 ± 11.3 µg/mL (≈ 246 µM) | CC(=O)OCC1OC(n2cnc3c(N4CCOCC4)ncnc32)C(NS(=O)(=O)c2ccc(OC(F)(F)F)cc2)C(OC(C)=O)C1OC(C)=O (stereo not shown) [C33] | 71.5 ± 4.4% | 53.0 ± 3.7% | 54.4 ± 3.3% | –
33.8 ± 4.6 µg/mL (≈ 46 µM) | 53.8 ± 4.8 µg/mL (≈ 73.2 µM) | 53 ± 2.2 µg/mL (≈ 72.1 µM) | CC(=O)OCC1OC(n2cnc3c(N4CCOCC4)nc(F)nc32)C(NS(=O)(=O)c2ccc(OC(F)(F)F)cc2)C(OC(C)=O)C1OC(C)=O (stereo not shown) [C34] | 67.4 ± 2.0% | 65.6 ± 4.5% | 72.7 ± 2% | –
17 ± 1.4 µg/mL (≈ 23.7 µM) | 33.9 ± 0.5 µg/mL (≈ 47.3 µM) | 457 ± 10.2 µg/mL (≈ 638 µM) | CC(=O)OCC1OC(n2cnc3c(N4CCOCC4)ncnc32)C(NS(=O)(=O)c2cccc(OC(F)(F)F)c2)C(OC(C)=O)C1OC(C)=O (stereo not shown) [C35] | 67.9 ± 3.3% | 68.9 ± 2.0% | 49.1 ± 1.6% | –
283 ± 10.5 µg/mL (≈ 510 µM) | 562 ± 11.1 µg/mL (≈ 1010 µM) | 313 ± 7.1 µg/mL (≈ 564 µM) | Cc1ccc(S(=O)(=O)NC2C(O)C(O)C(CO)OC2n2cnc3c(N4CCOCC4)nc(Cl)nc32)cc1 (stereo not shown) [C36] | 57.3 ± 1.1% | 52.2 ± 0.8% | 50.6 ± 3.6% | –
2000 ± 21.8 µg/mL (≈ 3620 µM) | 344 ± 15.8 µg/mL (≈ 623 µM) | 280 ± 13.9 µg/mL (≈ 507 µM) | O=[N+]([O-])c1ccc(S(=O)(=O)NC2C(O)C(O)C(CO)OC2n2cnc3c(N4CCOCC4)ncnc32)cc1 (stereo not shown) [C37] | 36.2 ± 4.6% | 50.6 ± 2.1% | 57.8 ± 3.4% | –
442 ± 12.6 µg/mL (≈ 726 µM) | 474 ± 27.7 µg/mL (≈ 779 µM) | 421 ± 7.4 µg/mL (≈ 692 µM) | O=S(=O)(NC1C(O)C(O)C(CO)OC1n1cnc2c(N3CCOCC3)nc(F)nc21)c1ccc(OC(F)(F)F)cc1 (stereo not shown) [C38] | 51.54 ± 0.3% | 46.5 ± 1.0% | 51.6 ± 0.5% | –
